Results taken from PubChem BioAssay (NCI).
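How tested: cells in 96-well plates exposed to compound for 48 hours at five concentrations. GI50: concentration for 50% inhibition of growth. TGI denotes the concentration required for complete inhibition of growth.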

What was measured:
Test in all cases: DTP human tumour cell line panel, 48 h
KM12 colon = tested on: KM12 colon
CAKI-1 renal = tested on: CAKI-1 renal
IGROV1 ovarian = tested on: IGROV1 ovarian
EKVX NSCLC = tested on: EKVX NSCLC
HCC-2998 colon = tested on: HCC-2998 colon
SN12C renal = tested on: SN12C renal
HL-60(TB) leukemia = tested on: HL-60(TB) leukemia
MDA-N = tested on: MDA-N
SK-MEL-5 melanoma = tested on: SK-MEL-5 melanoma
HS 578T breast = tested on: HS 578T breast
LOX IMVI melanoma = tested on: LOX IMVI melanoma

Compound | TGI (KM12 colon) [µM] | TGI (CAKI-1 renal) [µM] | TGI (IGROV1 ovarian) [µM] | TGI (EKVX NSCLC) [µM] | TGI (HCC-2998 colon) [µM] | TGI (SN12C renal) [µM] | TGI (HL-60(TB) leukemia) [µM] | TGI (MDA-N) [µM] | TGI (SK-MEL-5 melanoma) [µM] | TGI (HS 578T breast) [µM] | TGI (LOX IMVI melanoma) [µM] | GI50 (SK-MEL-5 melanoma) [nM] | GI50 (KM12 colon) [nM] | GI50 (CAKI-1 renal) [µM] | GI50 (HS 578T breast) [µM] | GI50 (EKVX NSCLC) [nM] | GI50 (SN12C renal) [nM] | GI50 (HL-60(TB) leukemia) [µM] | GI50 (IGROV1 ovarian) [nM] | GI50 (HCC-2998 colon) [nM]
N#C/C(=C\c1cccc(O)c1O)C(N)=O | > 100 | > 100 | > 100 | > 100 | 46.9 | > 100 | 31.1 |  |  |  |  |  |  |  |  |  |  |  |  | 
O=C(Sc1c(-c2ccccc2)c(=O)n(-c2ccccc2)c(=S)n1-c1ccccc1)c1cccs1 | > 100 | > 100 | > 100 | > 100 |  | > 100 | > 100 | > 100 | 95.1 | > 100 | 61.2 |  |  |  |  |  |  |  |  | 
N/C(=N\NS(=O)(=O)c1ccccc1)Oc1ccc(Br)cc1Br | > 100 | > 100 | > 100 | > 100 | > 100 | > 100 | > 100 |  | > 100 |  | > 100 |  |  |  |  |  |  |  |  | 
Cc1cccc2c1c1ccc3c(c1n2C)C(=O)C=CC3=O | 28.6 | 10.4 | 32.5 | 38.2 | 32.8 | 12.8 | 2.94 |  | 29.6 |  | 6.58 |  |  |  |  |  |  |  |  | 
Cc1ccc(S(=O)(=O)[C@@H](Cl)[C@H]2N=C(Cl)NN=C2c2ccccc2)cc1 | 50 | > 100 | 55.4 | > 100 | > 100 | 54 |  | 74.4 | 34.5 |  | 51.8 |  |  |  |  |  |  |  |  | 
O=c1c2ccccc2nc(-c2ccccc2)n1NC(=S)Nc1ccc(Cl)cc1 | > 100 | > 100 | > 100 |  |  | > 100 | > 100 |  | > 100 |  | > 100 |  |  |  |  |  |  |  |  | 
C#CCNC(=O)ON1C(=O)CCC1=O | > 100 |  | > 100 | > 100 |  | > 100 | > 100 |  |  |  | > 100 |  |  |  |  |  |  |  |  | 
CO[C@H]1O[C@@H]2CO[C@@H](c3ccccc3)O[C@H]2[C@@H]2C/C=C\CCC[C@@]12O | 54.9 | > 100 | 96.2 | 45.8 | 26.4 | 32.5 | 51.2 | 60.8 | 31.7 |  | 32.4 |  |  |  |  |  |  |  |  | 
Cc1cc(NC(=O)C2C3C=CC(O3)C2C(=O)O)no1 (stereo unspecified) |  |  | > 100 | > 100 | > 100 | > 100 | 40 |  | > 100 |  | 29.8 |  |  |  |  |  |  |  |  | 
CNc1ccc2ncccc2c1[N+](=O)[O-] | > 100 | > 100 | > 100 | > 100 | > 100 | > 100 | > 100 |  | > 100 |  | > 100 |  |  |  |  |  |  |  |  | 
CCSCN(C)c1nc(N(C)C)nc(N(C)C)n1 | > 100 | > 100 | > 100 | > 100 | > 100 | > 100 | 81.9 |  | > 100 |  | > 100 |  |  |  |  |  |  |  |  | 
Cc1ccc(-n2cc(-c3ccc(Cl)cc3)c3c(NN)ncnc32)cc1 | 29 | 8.73 | 11.2 | 9.99 | 22.2 | 13.9 | 4.99 | 63.2 | 7.23 |  | 19.7 |  |  |  |  |  |  |  |  | 
COc1cccc(/C(Cl)=C(\C=O)c2cccc(OC)c2)c1 | 26.3 | 70 | 47.8 | 38.7 | 30.5 | 34.7 | 12.5 |  | 23.8 |  | 20.3 |  |  |  |  |  |  |  |  | 
NC(Cc1c[nH]c2cc([N+](=O)[O-])ccc12)C(=O)O (stereo unspecified) | > 100 | > 100 | > 100 | > 100 |  | > 100 |  | > 100 | > 100 | > 100 | > 100 |  |  |  |  |  |  |  |  | 
COc1ccc(/C=C/C(=O)c2ccc(-n3cc(CN4CCN(c5cc6c(cc5F)c(=O)c(C(=O)O)cn6C5CC5)CC4)nn3)cc2)cc1OC | 4.46 | 19 |  | > 100 |  | 10 | > 100 |  | 7.74 | > 100 |  | 2640 | 1570 | 5.1 | 3.91 | 4240 | 2660 | 3.18 |  | 
CN(C)/C=N\c1ccnc(=O)[nH]1 | > 100 | > 100 | > 100 | > 100 |  | > 100 | > 100 |  | > 100 |  | > 100 |  |  |  |  |  |  |  |  | 
C[N+](C)(C)C=Nc1cccc2c1CCCC2 |  | > 100 | > 100 | > 100 |  | > 100 | > 100 | > 100 | > 100 | > 100 | > 100 |  |  |  |  |  |  |  |  | 
O=C1C[C@@H]2[C@@H](CCC23CC3)N1 | > 100 | > 100 | > 100 | > 100 | > 100 | > 100 | > 100 |  | > 100 |  | > 100 |  |  |  |  |  |  |  |  | 
N#C/C(=C\c1ccc([N+](=O)[O-])s1)c1nc2cc(Cl)ccc2s1 | 3.84 |  | 4.52 | 5.82 | 6.8 | 1.43 |  |  | 0.955 | 8.45 |  | 314 | 1440 |  | 2.45 | 1630 | 296 |  | 940 | 2310
CN1CN(c2ccccc2)C2(CCN(CCCCCCF)CC2)C1=O | > 100 | > 100 | > 100 | > 100 |  | > 100 | > 100 | > 100 | > 100 |  | > 100 |  |  |  |  |  |  |  |  | 
O=S(=O)(c1ccc(-c2nnc(-c3ccc(F)cc3)o2)cc1)c1ccc(-c2nnc(-c3ccc(F)cc3)o2)cc1 | > 100 | > 100 | > 100 | > 100 | > 100 | > 100 | > 100 | > 100 | > 100 |  | > 100 |  |  |  |  |  |  |  |  | 
Cc1c(OCc2ccccc2)c(=O)ccn1CCc1c[nH]c2ccccc12 | > 100 |  | > 100 | > 100 |  | > 100 |  | 79.9 | 35.3 | > 100 | > 100 |  |  |  |  |  |  |  |  | 
